Data taken from US6676932B2, “Ultraviolet absorbent, photostabilizer, ultraviolet ray-absorbing composition, photostabilized composition and external preparation for skin” (Shiseido Co., Ltd., priority 2001, dated 2004).
Values belong to the compound of their own block, whether it stands above or below them.

Assays:
Type in all cases: physicochemical
[1] = Dye stabilization effect in blend with sequestering agents (Test Examples 212 to 275); details: daylight exposure (80 MJ)
Description: Each test sample was prepared for observation of the change of the appearance of each test sample (determined visually) and measurement of the color difference (ΔE) before and after daylight exposure (80 MJ).
(§1) With a spectrophotometer, the color was measured on the Lab coordinate system, to calculate the color difference on the basis of the color before daylight exposure. More specifically, the color difference (ΔE) was calculated on the basis of the measured values (L1, a1, b1) before daylight exposure.

[2] = Drug stabilization effect blended with sequestering agent (Test Examples 372 to 391); design: key to Appearance (visual determination): ◯: no change; Δ: almost no change; x: change; details: daylight exposure (80 MJ)
Description: Then, the photostabilization effect of the pyridazine derivative in combination with sequestering agents on each drug and the change of the appearance of each composition were examined, by using the following formulation for assessment.
(§2) For observation of the change of the appearance of each test sample (determination based on visual observation) and the measurement of the remaining ratio by liquid chromatography before and after daylight exposure (80 MJ), the test sample was prepared.

[3] = Dye stabilization effect under daylight exposure (Test Examples 6-91); design: key to Δ E: color difference ΔE in Lab vs. color before daylight exposure; key to Appearance (visual determination): ◯: no change; Δ: almost no change; x: change; details: photostabilizer 0.05 wt %, daylight exposure (80 MJ)
Description: For observation of the change of the appearance of each test sample (determination based on visual observation) and the measurement of color difference (ΔE) before and after daylight exposure (80 MJ), the test sample was prepared.
as §1

[4] = Stabilization effect on perfume under daylight exposure (Test Examples 92 to 181); design: key: ◯: no change; Δ: almost no change; x: change; details: daylight exposure (80 MJ)
Description: Each test sample was prepared for observation of the change of the odor of the test sample (determined by perfume coordinator) before and after daylight exposure (80 MJ).

[5] = Drug stabilization effect under daylight exposure (Test Examples 182 to 211); design: key to Appearance (visual determination): ◯: no change; Δ: almost no change; x: change; details: photostabilizer 0.05 wt %, daylight exposure (80 MJ); for Remaining ratio (%): liquid chromatography
Description: as §2

[6] = dye Blue 1 (Brilliant Blue FCF) 0.001, sequestering agent 0.05 alone, photostabilizer 0
[7] = dye Red 227 (Acid Fuchsine D) 0.0001, sequestering agent 0.02 alone, photostabilizer 0
[8] = drug Glycyrrhizinic acid dipotassium 0.05, sequestering agent blend amount 0.03, photostabilizer 0
[9] = drug L-ascorbic acid 2-glucoside 2.0, sequestering agent blend amount 0.03, photostabilizer 0
[10] = drug dibutylhydroxy toluene 0.01, sequestering agent blend amount 0.03, photostabilizer 0
[11] = dye Blue 1 (Brilliant Blue FCF) 0.0001 wt %
[12] = dye Green 3 (Fast Green FCF) 0.001 wt %
[13] = dye Red 227 (Acid Fuchsine D) 0.0001 wt %
[14] = dye Yellow 5 (Sunset Yellow FCF) 0.001 wt %
[15] = dyes Red 106 (Acid red) 0.00001 + Yellow 203 (Quinoline Yellow WS) 0.0001 wt %
[16] = base perfume Fruity, photostabilizer 0.1 wt %
[17] = base perfume Muge, photostabilizer 0.05 wt %
[18] = base perfume Spicy, photostabilizer 0.2 wt %
[19] = natural perfume Jasmine oil, photostabilizer 0.05 wt %
[20] = synthetic perfume Rose oxide, photostabilizer 0.2 wt %
[21] = drug Dipotassium glycyrrhizinate 0.05 wt %
[22] = dyes Yellow 203 (Quinoline Yellow WS) 0.0001 + Yellow 5 (Sunset Yellow FCF) 0.0001 wt %
[23] = natural perfume Nelori oil, photostabilizer 0.1 wt %
[24] = synthetic perfume Limonene oil, photostabilizer 0.05 wt %
[25] = drug L-ascorbic acid 2-glucoside 2.0 wt %
[26] = dyes Red 213 (Rhodamine B) 0.00001 + Blue 1 (Brilliant Blue FCF) 0.00001 wt %
[27] = dyes Red 227 (Acid Fuchsine D) 0.0001 + Yellow 5 (Sunset Yellow FCF) 0.0001 wt %
[28] = dyes Red 401 (Violanin R) 0.0001 + Blue 1 (Brilliant Blue FCF) 0.00001 wt %
[29] = drug dibutylhydroxytoluene 0.01 wt %
[30] = drug dl-α-tocopherol 2-L-ascorbic acid phosphate diester potassium salt 0.01 wt %
[31] = drug dl-α-tocopherol 2-L-ascorbic acid phosphate diester potassium salt 0.01, sequestering agent blend amount 0.03, photostabilizer 0

- Δ E ([1]; dyes Red 227 (Acid Fuchsine D) 0.0001 + Yellow 203 (Quinoline Yellow WS) 0.0001, sequestering agent blend amount 0.02, photostabilizer 0): 3.01
- Δ E ([1]; dyes Red 401 (Violanin R) 0.0001 + Green 3 (Fast Green FCF) 0.00001, sequestering agent blend amount 0.03, photostabilizer 0): 4.23
- Δ E ([1]; dyes Yellow 203 (Quinoline Yellow WS) 0.0001 + Yellow 5 (Sunset Yellow FCF) 0.0001, sequestering agent blend amount 0.01, photostabilizer 0): 1.44
- Appearance (visual determination) [2, 8]: x
- Remaining ratio (%) [2, 8]: 85.8%
- Appearance (visual determination) [2, 9]: x
- Remaining ratio (%) [2, 9]: 85.2%
- Appearance (visual determination) [2, 10]: x
- Remaining ratio (%) [2, 10]: 54.7%
Compound: sodium metaphosphate
- Δ E [1, 6]: 7.78
- Δ E ([1]; dye Green 3 (Fast Green FCF) 0.001, sequestering agent 0.1 alone, photostabilizer 0): 1.77
- Δ E [1, 7]: 1.37
- Δ E ([1]; dye Yellow 5 (Sunset Yellow FCF) 0.0001, sequestering agent 0.03 alone, photostabilizer 0): 1.68

- Δ E ([1]; dyes Red 106 (Acid Red) 0.00001 + Yellow 203 (Quinoline Yellow WS) 0.0001, sequestering agent blend amount 0.02, photostabilizer 0): 3.56
- Δ E ([1]; dyes Red 213 (Rhodamine B) 0.00001 + Blue 1 (Brilliant Blue FCF) 0.00001, sequestering agent blend amount 0.03, photostabilizer 0): 3.85
- Appearance (visual determination) [2, 31]: x
- Remaining ratio (%) [2, 31]: 70.1%
Compound: O=C([O-])CN(CCO)CCN(CC(=O)[O-])CC(=O)[O-].[Na+].[Na+].[Na+] [ethylenediaminehydroxyethyl trisodium triacetate]
- Δ E [1, 6]: 7.63
- Δ E [1, 7]: 1.43

Second part, the compound before the results:

Compound: Oc1nnccc1N1CCOCC1 [3-Hydroxy-4-morpholinopyridazine, 3-hydroxy-4-morpholinopyridazine]
- Δ E ([1]; dyes Red 401 (Violanin R) 0.0001 + Blue 1 (Brilliant Blue FCF) 0.00001, no sequestering agent, photostabilizer blend amount 0.02): 1.34
- Δ E ([1]; dyes Red 401 (Violanin R) 0.0001 + Blue 1 (Brilliant Blue FCF) 0.00001, with ethylenediaminetetraacetate trisodium 0.03, photostabilizer blend amount 0.02): 0.91
- Appearance (visual determination) [3, 11]: ◯
- Δ E [3, 11]: 1.26
- Appearance (visual determination) [3, 12]: ◯
- Δ E [3, 12]: 0.48
- Appearance (visual determination) [3, 13]: ◯
- Δ E [3, 13]: 0.60
- Appearance (visual determination) [3, 14]: ◯
- Δ E [3, 14]: 0.62
- Appearance (visual determination) [3, 15]: ◯
- Δ E [3, 15]: 0.80
- odor determination [4, 16]: ◯
- odor determination [4, 17]: ◯
- odor determination [4, 18]: ◯
- odor determination [4, 19]: ◯
- odor determination [4, 20]: ◯
- Appearance (visual determination) [5, 21]: ◯
- Remaining ratio (%) [5, 21]: 99.2%

Compound: c1cc(N2CCOCC2)nnc1N1CCOCC1 [3,6-Dimorpholinopyridazine]
- Δ E ([1]; dyes Red 213 (Rhodamine B) 0.00001 + Blue 1 (Brilliant Blue FCF) 0.00001, no sequestering agent, photostabilizer blend amount 0.02): 1.98
- Δ E ([1]; dyes Red 213 (Rhodamine B) 0.00001 + Blue 1 (Brilliant Blue FCF) 0.00001, with ethylenediaminehydroxyethyl trisodium triacetate 0.03, photostabilizer blend amount 0.02): 1.32
- Appearance (visual determination) [3, 11]: ◯
- Δ E [3, 11]: 1.25
- Appearance (visual determination) [3, 12]: ◯
- Δ E [3, 12]: 0.44
- Appearance (visual determination) [3, 13]: ◯
- Δ E [3, 13]: 0.53
- Appearance (visual determination) [3, 14]: ◯
- Δ E [3, 14]: 0.51
- Appearance (visual determination) [3, 22]: ◯
- Δ E [3, 22]: 0.40
- odor determination [4, 16]: ◯
- odor determination [4, 23]: ◯
- odor determination [4, 24]: ◯
- Appearance (visual determination) [5, 25]: ◯
- Remaining ratio (%) [5, 25]: 98.5%
- Appearance (visual determination) ([2]; drug dibutylhydroxy toluene 0.01, no sequestering agent, photostabilizer blend amount 0.03): Δ
- Appearance (visual determination) ([2]; drug dibutylhydroxy toluene 0.01, with sodium metaphosphate 0.03, photostabilizer blend amount 0.03): ◯

Compound: COc1ccc(C(=O)c2ccccc2)c(O)c1 [2-Hydroxy-4-methoxybenzophenone, reference compound]
- Appearance (visual determination) [3, 11]: Δ
- Δ E [3, 11]: 1.76
- Appearance (visual determination) [3, 12]: Δ
- Δ E [3, 12]: 0.75
- Appearance (visual determination) [3, 13]: Δ
- Δ E [3, 13]: 0.71
- Appearance (visual determination) [3, 14]: Δ
- Δ E [3, 14]: 0.82
- Appearance (visual determination) [3, 15]: Δ
- Δ E [3, 15]: 1.11
- Appearance (visual determination) [3, 26]: Δ
- Δ E [3, 26]: 1.26
- Appearance (visual determination) [3, 27]: Δ
- Δ E [3, 27]: 0.88
- Appearance (visual determination) [3, 28]: Δ
- Δ E [3, 28]: 0.82
- Appearance (visual determination) [3, 22]: ◯
- Δ E [3, 22]: 0.52
- odor determination [4, 16]: Δ
- odor determination [4, 17]: Δ
- odor determination ([4]; base perfume Rose, photostabilizer 0.05 wt %): Δ
- odor determination [4, 18]: Δ
- odor determination ([4]; base perfume Woody, photostabilizer 0.1 wt %): Δ
- odor determination [4, 19]: Δ
- odor determination ([4]; natural perfume Lavender oil, photostabilizer 0.1 wt %): Δ
- odor determination [4, 23]: Δ
- odor determination ([4]; natural perfume Rose oil, photostabilizer 0.05 wt %): Δ
- odor determination ([4]; natural perfume Ylang ylang oil, photostabilizer 0.2 wt %): Δ
- odor determination ([4]; synthetic perfume Citral, photostabilizer 0.1 wt %): Δ
- odor determination [4, 24]: Δ
- odor determination ([4]; synthetic perfume Linalool, photostabilizer 0.05 wt %): Δ
- odor determination ([4]; synthetic perfume Linalyl acetate, photostabilizer 0.1 wt %): Δ
- odor determination [4, 20]: Δ
- Appearance (visual determination) [5, 21]: Δ
- Remaining ratio (%) [5, 21]: 97.8%
- Appearance (visual determination) [5, 25]: Δ
- Remaining ratio (%) [5, 25]: 97.8%
- Appearance (visual determination) [5, 29]: Δ
- Remaining ratio (%) [5, 29]: 95.2%
- Appearance (visual determination) [5, 30]: Δ
- Remaining ratio (%) [5, 30]: 95.4%
- Appearance (visual determination) ([5]; drug salicylic acid 0.1 wt %): Δ
- Remaining ratio (%) ([5]; drug salicylic acid 0.1 wt %): 98.2%
